Assay results: patent US8642633B2, “Di-substituted amides for enhancing glutamatergic synaptic responses” (Cortex Pharmaceutical, Inc., priority 2007, dated 2014)

Tests used:
AMPA receptor = assay: In vivo electrophysiology: field EPSP amplitude in the dentate gyrus of anesthetized animals; parameters: species or system rat; conditions: rat, 10mpk i.p.
Experimental: A. Enhancement of AMPA Receptor Function In Vivo.
Synaptic responses mediated by AMPA receptors are increased according to the method of the invention, using the compounds described herein.
(§1) The electrophysiological effects of the invention compounds were tested in vivo in anesthetized animals according to the following procedures. Animals are maintained under anesthesia by phenobarbital administered using a Hamilton syringe pump. Stimulating and recording electrodes are inserted into the perforant path and dentate gyrus of the hippocampus, respectively. Once electrodes are implanted, a stable baseline of evoked responses are elicited using single monophasic pulses (100 μs pulse duration) delivered at 3/min to the stimulating electrode. Field EPSPs are monitored until a stable baseline is achieved (about 20-30 min), after which a solution of test compound is injected intraperitoneally and evoked field potentials are recorded. Evoked potentials were recorded for approximately 2 h following drug administration or until the amplitude of the field EPSP returns to baseline. In the latter instance, it is common that an iv administration is also carried out with an appropriate dose of the same test compound. Invention compounds were assayed in the in vivo electrophysiology assay described above and data for representative test compounds is shown in column 1 in Table 1.
The electrophysiological effects of invention compounds were tested in vivo in anesthetized animals according to the following procedures.
as §1, with “Animals” for “The electrophysiological effects of the invention compounds were tested in vivo in anesthetized animals according to the following procedures. Animals”, “are” for “were”, “compound.” for “compound. Invention compounds were assayed in the in vivo electrophysiology assay described above and data for representative test compounds is shown in column 1 in Table 1.”

[1] = test system: d-amphetamine stimulated locomotion in mice; assay: Inhibition of d-amphetamine stimulated locomotion; format: in vivo; conditions: Mus musculus, ip, 18 mpk i.p., d-amphetamine 2 mg/kg
Experimental: B. Behavioral Testing: Inhibition of d-Amphetamine Stimulated Locomotion
The ability of the invention compounds to inhibit d-Amphetamine stimulated locomotor activity was assayed according to the following procedure. Male CD1 mice, 25-30 gm body weight, were brought into the experimental room and allowed at least 30 min of acclimation. Each mouse was placed into the testing enclosure with an infrared beam array that automatically monitors the animal's activity. Mice were habituated in the testing enclosure for 20 min, and then returned to their home cage. Mice were dosed intraperitoneally with test compound in appropriate vehicle 5 minutes before d-Amphetamine injection (2 mpk). Ten minutes after d-Amphetamine injection, mice were tested for locomotor activity for a total of […]. The data was computer collected and expressed as “arbitrary movement units.” All data were analyzed by comparing the groups treated with the test compound to the vehicle control group. The data shown is the % inhibition of hyperactivity induced by acute administration of 2 mg/kg d-amphetamine in mice. The compounds tested produced a statistically significant inhibition of d-amphetamine stimulated locomotion.
Male CD1 mice, 25-30 gm body weight, were brought into the experimental room and allowed at least 30 min of acclimation. Each mouse was placed into the testing enclosure with an infrared beam array that automatically monitors the animal's activity. Mice were habituated in the testing enclosure for 20 min, and then returned to their home cage. Mice were dosed intraperitoneally with test compound in appropriate vehicle 5 minutes before d-Amphetamine injection. Ten minutes after d-Amphetamine injection, mice were tested for locomotor activity for a total of 15 minutes. The data was computer collected and expressed as “arbitrary movement units.” All data were analyzed by comparing the groups treated with the test compound to the vehicle control group.

melting point	Compound	In vivo Electrophysiology: % increase in the amplitude of the field EPSP in the dentate gyrus of rat (AMPA receptor)	inhibition in vivo at 18 mg/kg [1]
51 to 52 °C	CN(C(=O)c1ccc2nonc2c1)C1CCC1 [Example 6, N-Cyclobutyl-N-methyl-[2,1,3]-benzoxadiazole-5-carboxamide]	10%	37%
102 to 104 °C	CCN(C(=O)c1ccc2nonc2c1)C1CCOCC1 [Example 17, N-Ethyl-N-tetrahydro-2H-pyran-4-yl-[2,1,3]-benzoxadiazole-5-carboxamide]	12%	23%
